Results: article PMC10266040 (Proceedings of the National Academy of Sciences of the …, 2023)
Positions count from the first letter of the chain named.

What was measured:
[1] = biological target: T1, ETR1 (Arabidopsis thaliana, UniProt P49333, K91R); assay: saturable […]ethylene radioligand binding to yeast expressing the mutant
T1 sequence (P49333 1-738 K91R): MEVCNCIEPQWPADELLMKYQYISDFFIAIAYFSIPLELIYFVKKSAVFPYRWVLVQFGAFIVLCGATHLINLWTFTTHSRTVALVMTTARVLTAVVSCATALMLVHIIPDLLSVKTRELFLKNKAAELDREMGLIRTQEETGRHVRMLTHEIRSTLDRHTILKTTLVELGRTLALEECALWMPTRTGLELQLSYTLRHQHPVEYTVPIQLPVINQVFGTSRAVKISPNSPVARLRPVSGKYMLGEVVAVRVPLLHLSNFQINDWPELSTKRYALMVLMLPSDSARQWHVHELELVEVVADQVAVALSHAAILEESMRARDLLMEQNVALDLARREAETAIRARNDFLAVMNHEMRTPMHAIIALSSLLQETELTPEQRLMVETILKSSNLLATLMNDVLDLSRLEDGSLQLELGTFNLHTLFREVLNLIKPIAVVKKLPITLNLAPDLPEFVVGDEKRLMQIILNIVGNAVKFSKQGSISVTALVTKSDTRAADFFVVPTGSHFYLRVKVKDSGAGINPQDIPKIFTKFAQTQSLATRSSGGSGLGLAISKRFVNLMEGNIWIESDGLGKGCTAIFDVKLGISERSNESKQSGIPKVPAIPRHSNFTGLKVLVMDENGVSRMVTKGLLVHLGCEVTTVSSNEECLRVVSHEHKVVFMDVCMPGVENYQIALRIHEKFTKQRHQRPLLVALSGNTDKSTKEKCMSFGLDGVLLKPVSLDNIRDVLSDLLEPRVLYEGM

[2] = biological target: T2, ETR1 (Arabidopsis thaliana, UniProt P49333, K91M); assay: as above
T2 sequence (P49333 1-738 K91M): T1 sequence (P49333 1-738 K91R) with R91M

C=C [ethylene]
% of wildtype binding [1]: 63 % of wildtype binding | % of wildtype binding [2]: ~ 6 % of wildtype binding
